Experiment [1] deals with MIA-PaCa-2 pancreatic cancer cell line (KRAS G12C). In words: Cell proliferation assay (CellTiter 96 Aqueous One). The conditions noted are these: Homo sapiens; for IC50: MIA PaCa-2, MIA PaCa-2; for inhibition at 10 µM: MIA PaCa-2, read-out: % inh cell proliferation (10 μM) in MIA PaCa-2. Format: cell-based. Put shortly:
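Percent inhibition of proliferation is derived from MTS absorbance data. Cells seeded at 2000–5000 per well were grown overnight before treatment. Compounds, at 10 μM final or in dilution series, stayed on cells for 2–4 days in medium containing 10% FBS and 0.3% DMSO.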

A further experiment concerns the target T1, KRas Q61H mutant (Homo sapiens, UniProt P01116, Q61H).
T1 construct: made in house
In words: Ras GTP binding domain inhibition assay (labeled-GTP competition, cell-free). Put shortly: (§1)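 Labeled-GTP competition read out as bound Cy3/Cy5-GTP fluorescence after washes, with 100 nM tracer for 45 min at RT. Before tracer, compounds at 20 μM, or a dilution series for IC50, sat 3 h at RT on the Ni-immobilized His-tagged GTPase. Sos GEF (10-30 μg/mL) was optionally present for the last hour.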

A further experiment deals with T2, KRas G12D mutant (Homo sapiens, UniProt P01116, G12D).
T2 construct: made in house
The experiment is described as above. Summed up: as §1

Another experiment addresses T3, KRas G12C mutant (Homo sapiens, UniProt P01116, G12C).
T3 construct: made in house
The description is as above. Put shortly:
as §1

Where [2] appears, read: with SOS, read-out: KRas Q61H mutant + SOS: % inh.
Setting [3] is: without SOS, read-out: KRas Q61H mutant: % inh.
[4] abbreviates: with SOS, read-out: KRas G12D mutant + SOS: % inh.
[5] abbreviates: without SOS, read-out: KRas G12D mutant: % inh.
The mark [6] stands for this setting: with SOS, read-out: KRas G12C mutant + SOS: % inh.
Where [7] appears, read: without SOS, read-out: KRas G12C mutant: % inh.

The structures appear in SMILES notation. Read-outs that look alike come from different tables or passages of the source.

Broadly, the IC50 is the concentration that inhibits the measured activity by half. In experiment [1], `Cc1c(-c2ccn(C(C)C)n2)sc2nc(-c3nccn3C)nc(NCCC3CCC(=O)N3)c12` (racemic) [Compound 56, rac-5-(2-((6-(1-Isopropyl-1H-pyrazol-3-yl)-5-methyl-2-(1-methyl-1H-imidazol-2-yl)thieno[2,3-d]pyrimidin-4-yl)amino)ethyl)pyrrolidin-2-one] had an IC50 greater than 10 µM. The inhibition at 10 µM in experiment [1] lay in the range of 1 to 25%. For the same compound, the inhibition at 20 µM on KRas Q61H mutant (setting [2]) is 76 to 100%; at KRas Q61H mutant (setting [3]) it was 51 to 75%; on KRas G12D mutant (setting [4]), 76 to 100%; on KRas G12D mutant (setting [5]), 26 to 50%; at KRas G12C mutant (setting [6]) it was 76 to 100%; at KRas G12C mutant (setting [7]), 76 to 100%.
In experiment [1], `Cc1c(-c2ccn(C(C)C)n2)sc2nc(-c3nccn3C)nc(N3CCC(COC(C)C)C3)c12` (racemic) [Compound 62, rac-4-(3-(Isopropoxymethyl)pyrrolidin-1-yl)-6-(1-isopropyl-1H-pyrazol-3-yl)-5-methyl-2-(1-methyl-1H-imidazol-2-yl)thieno[2,3-d]pyrimidine] had an IC50 of less than 1 µM. Also, the inhibition at 10 µM in experiment [1] lay within 76 to 100%. Besides, the inhibition at 20 µM fell in the range of 51 to 75% at KRas Q61H mutant (setting [2]); 76 to 100% at KRas Q61H mutant (setting [3]); 51 to 75% at KRas G12D mutant (setting [4]); 26 to 50% at KRas G12D mutant (setting [5]); 51 to 75% on KRas G12C mutant (setting [6]).
In experiment [1], `COC1CCCN(c2nc(-c3ccccn3)nc3sc(-c4ccn(C(C)C)n4)c(C)c23)C1` (racemic) [Compound 70, Rac-6-(1-Isopropyl-1H-pyrazol-3-yl)-4-(3-methoxypiperidin-1-yl)-5-methyl-2-(pyridin-2-yl)thieno[2,3-d]pyrimidine] showed a half-inhibitory concentration (IC50) of 5 to 10 µM. Further, in experiment [1], the inhibition at 10 µM lay within 76 to 100%. Besides, the inhibition at 20 µM at KRas Q61H mutant (setting [2]) was in the range of 26 to 50%; at KRas Q61H mutant (setting [3]), 26 to 50%; on KRas G12D mutant (setting [4]), 26 to 50%; at KRas G12D mutant (setting [5]) it was 26 to 50%; on KRas G12C mutant (setting [6]), 26 to 50%; on KRas G12C mutant (setting [7]), 51 to 75%.
In experiment [1], `COCC1CCN(c2nc(-c3ccccn3)nc3sc(-c4ccn(C(C)C)n4)c(C)c23)C1` (racemic) [Compound 71, Rac-6-(1-Isopropyl-1H-pyrazol-3-yl)-4-(3-(methoxymethyl)pyrrolidin-1-yl)-5-methyl-2-(pyridin-2-yl)thieno[2,3-d]pyrimidine] came in with a half-maximal inhibitory concentration (IC50) of 5 to 10 µM. Besides, the inhibition at 10 µM in experiment [1] was 76 to 100%. For the same compound, the inhibition at 20 µM at KRas Q61H mutant (setting [2]) was 51 to 75%; at KRas Q61H mutant (setting [3]), 26 to 50%; at KRas G12D mutant (setting [4]), 1 to 25%; on KRas G12D mutant (setting [5]), 0%; on KRas G12C mutant (setting [6]), 26 to 50%; on KRas G12C mutant (setting [7]), 26 to 50%.
Turning to `COCC1CCN(c2nc(-c3nccn3C)nc3sc(-c4ccn(C(C)C)n4)c(-c4ccccc4)c23)C1` (racemic) [Compound 76, Rac-6-(1-isopropyl-1H-pyrazol-3-yl)-4-(3-(methoxymethyl)pyrrolidin-1-yl)-2-(1-methyl-1H-imidazol-2-yl)-5-phenylthieno[2,3-d]pyrimidine], the IC50 in experiment [1] was less than 1 µM. Besides, the inhibition at 10 µM in experiment [1] lay within 76 to 100%. Also, the inhibition at 20 µM was 51 to 75% on KRas Q61H mutant (setting [2]); 26 to 50% at KRas Q61H mutant (setting [3]); 26 to 50% at KRas G12D mutant (setting [4]); 51 to 75% at KRas G12D mutant (setting [5]); 0% at KRas G12C mutant (setting [6]); 1 to 25% at KRas G12C mutant (setting [7]).
With `COC1CCCN(c2nc(-c3nccn3C)nc3sc(-c4ccn(C(C)C)n4)c(-c4ccccc4)c23)C1` (racemic) [Compound 77, Rac-6-(1-isopropyl-1H-pyrazol-3-yl)-4-(3-methoxypiperidin-1-yl)-2-(1-methyl-1H-imidazol-2-yl)-5-phenylthieno[2,3-d]pyrimidine], in experiment [1], the IC50 lay in the range of 5 to 10 µM. The inhibition at 10 µM in experiment [1] lay within 76 to 100%. For the same compound, the inhibition at 20 µM at KRas Q61H mutant (setting [2]) is 26 to 50%; on KRas Q61H mutant (setting [3]), 1 to 25%; at KRas G12D mutant (setting [4]) it was 26 to 50%; on KRas G12D mutant (setting [5]), 51 to 75%; on KRas G12C mutant (setting [6]) it was 0%; on KRas G12C mutant (setting [7]) it was 26 to 50%.
As for `CO[C@H]1CC[C@@H](Nc2nc(-c3nccn3C)nc3sc(-c4cc[nH]n4)c(-c4ccccc4)c23)C1` (racemic) [Example 1, Rac-N-((1R,3S)-3-methoxycyclopentyl)-2-(1-methyl-1H-imidazol-2-yl)-5-phenyl-6-(1H-pyrazol-3-yl)thieno[2,3-d]pyrimidin-4-amine], the IC50 (in experiment [1]; on KRas Q61H mutant (with SOS)) was greater than 10 µM in each case. Besides, the inhibition at 10 µM in experiment [1] amounted to 0%. Moreover, the inhibition at 20 µM at KRas Q61H mutant (setting [2]) was 1 to 25%; at KRas Q61H mutant (setting [3]), 1 to 25%; on KRas G12D mutant (setting [4]), 0%; on KRas G12D mutant (setting [5]) it was 0%; at KRas G12C mutant (setting [6]) it was 1 to 25%; on KRas G12C mutant (setting [7]), 1 to 25%.
For the compound `CO[C@H]1CC[C@@H](Nc2nc(-c3nccn3C)nc3sc(-c4ccn(C(C)C)n4)c(-c4ccccc4)c23)C1` [Compound 5, 6-(1-Isopropyl-1H-pyrazol-3-yl)-N-((1R,3S)-3-methoxycyclopentyl)-2-(1-methyl-1H-imidazol-2-yl)-5-phenylthieno[2,3-d]pyrimidin-4-amine], the values for the IC50 (in experiment [1]; on KRas Q61H mutant (with SOS)) were less than 1 µM and 1 to 4.99 µM, respectively. Moreover, the inhibition at 10 µM in experiment [1] is 76 to 100%. The inhibition at 20 µM lay within 76 to 100% on KRas Q61H mutant (setting [2]); 26 to 50% at KRas Q61H mutant (setting [3]); 51 to 75% at KRas G12D mutant (setting [4]); 1 to 25% on KRas G12D mutant (setting [5]); 76 to 100% at KRas G12C mutant (setting [6]); 51 to 75% at KRas G12C mutant (setting [7]).
Take `COCCn1ccnc1-c1nc(N[C@H]2C[C@@H](OC)C2)c2c(-c3ccccc3)c(-c3ccn(C)n3)sc2n1` [Compound 7, N-((1s,3s)-3-Methoxycyclobutyl)-2-(1-(2-methoxyethyl)-1H-imidazol-2-yl)-6-(1-methyl-1H-pyrazol-3-yl)-5-phenylthieno[2,3-d]pyrimidin-4-amine]: the IC50 (in experiment [1]; on KRas Q61H mutant (with SOS)) was 1 to 4.99 µM each time. Besides, the inhibition at 10 µM in experiment [1] was 76 to 100%. Moreover, the inhibition at 20 µM on KRas Q61H mutant (setting [2]) is 76 to 100%; on KRas Q61H mutant (setting [3]) it was 76 to 100%; on KRas G12D mutant (setting [4]), 76 to 100%; at KRas G12D mutant (setting [5]) it was 51 to 75%; at KRas G12C mutant (setting [6]) it was 76 to 100%; at KRas G12C mutant (setting [7]), 76 to 100%.
On to `COCCn1ccnc1-c1nc(N[C@H]2C[C@@H](OC)C2)c2ccsc2n1` [Compound 9, N-((1s,3s)-3-Methoxycyclobutyl)-2-(1-(2-methoxyethyl)-1H-imidazol-2-yl)thieno[2,3-d]pyrimidin-4-amine], for which the figures for the IC50 (in experiment [1]; on KRas Q61H mutant (with SOS)) were greater than 10 µM and 5 to 10 µM, respectively. Moreover, the inhibition at 10 µM in experiment [1] lay in the range of 1 to 25%. In addition, the inhibition at 20 µM at KRas Q61H mutant (setting [2]) lay within 76 to 100%; at KRas Q61H mutant (setting [3]) it was 76 to 100%; on KRas G12D mutant (setting [4]), 76 to 100%; on KRas G12D mutant (setting [5]), 51 to 75%; at KRas G12C mutant (setting [6]), 76 to 100%; at KRas G12C mutant (setting [7]), 76 to 100%.
For `NC(=O)c1nc(O)c2scc(-c3ccccn3)c2n1` [Compound 18, 4-Hydroxy-7-(pyridin-2-yl)thieno[3,2-d]pyrimidine-2-carboxamide], the IC50 (in experiment [1]; at KRas Q61H mutant (with SOS)) was greater than 10 µM each time. The inhibition at 10 µM in experiment [1] came out at 0%. For the same compound, the inhibition at 20 µM on KRas Q61H mutant (setting [2]) lay in the range of 26 to 50%; at KRas Q61H mutant (setting [3]), 26 to 50%; on KRas G12D mutant (setting [4]), 26 to 50%; at KRas G12D mutant (setting [5]), 51 to 75%; on KRas G12C mutant (setting [6]), 26 to 50%; at KRas G12C mutant (setting [7]), 26 to 50%.

The values are drawn from patent US20230227466A1, “SUBSTITUTED THIENOPYRIMIDINES THAT INTERACT WITH THE RAS SUPERFAMILY FOR THE TREATMENT OF CANCERS, INFLAMMATORY DISEASES, RASOPATHIES, AND FIBROTIC DISEASE” (SHY Therapeutics, LLC, priority 2020, published 2023).
